Measured values reported in patent US12295997B2, “Prostate neoantigens and their uses” (Janssen Biotech, Inc., priority 2020, dated 2025).

B1: P19 (peptide, listed as Homo sapiens)
chain: WTPIPVLTRWPLPHPPPWRRATSCRMARSSPSATSGSSVRRRCSSLPSWVWNLAASTRPRSTPS

Tests used:
HLA-A*24:02 = HLA-A*24:02 (Homo sapiens, UniProt P04439, D101N/D140Y/D185E/E176V/E190D/F33S/G103R/G107R/I119L/I121M/I306V/K335N/L105A/L180Q/L300P/N151K/N90K/Q86E/Q94H/R106L/R138H/R89G/T104I/T345S/V100E/W191G/Y123F); assay: In vitro binding of neoantigens to class I MHC (UV peptide exchange, HLA class I ELISA); conditions: 100% = same binding as positive control peptide
Method: The 9 mer peptides identified by bioinformatics analysis were analyzed for their binding propensities to 6 common HLA class I alleles (HLA-A*01:01, A*02:01, A*03:01, A*24:02, B*07:02, B*08:01). The principle of the method is briefly described below and consists of two parts, one involving exchange of peptide with a positive control induced by Ultraviolet (UV) radiation, and the second is an enzyme immunoassay to detect stable HLA-peptide and empty HLA complexes.
HLA-bound peptides are critical for the stability of the HLA complex. A conditional HLA class I complex was stabilized by an UV-labile peptide utilizing a different peptide (Pos) for each HLA (Pos: HLA-A*01:01: […](SEQ ID NO: 409), HLA-A*02:01: […] (SEQ ID NO: 410), HLA-A*03:01: […] (SEQ ID NO: 411), HLA-A*24:02: […] (SEQ ID NO: 412), HLA-B*07:02: […] (SEQ ID NO: 413), HLA-B*08:01: […] (SEQ ID NO: 414), which could be cleaved by UV irradiation when bound to the HLA molecule. Upon cleavage, the resulting peptide fragments dissociated from the HLA class I complex since their length was insufficient to bind stably to HLA. Under the conditions in which peptide cleavage was performed (neutral pH, on melting ice), the peptide-free HLA complex remained stable.
The exchange efficiency between the peptide of interest and Pos was analyzed using an HLA class I ELISA. The combined technologies allowed the identification of ligands for an HLA molecule of interest which are potentially immunogenic.
Exchange control peptide Pos was a high affinity binder to the relevant HLA class I allele while exchange control peptide Neg was a non-binder. The UV control represented UV-irradiation of conditional HLA class I complex in the absence of a rescue peptide.
The HLA class I ELISA is an enzyme immunoassay based on the detection of beta2-microglobulin (B2M) of (peptide-stabilized) HLA class I complexes. To this end streptavidin was bound onto polystyrene microtiter wells. After washing and blocking, HLA complex present in exchange reaction mixtures or ELISA controls was captured by the streptavidin on the microtiter plate via its biotinylated heavy chain. Non-bound material was removed by washing. Subsequently, horseradish peroxidase (HRP)-conjugated antibody to human B2M was added. The HRP-conjugated antibody binds only to an intact HLA complex present in the microtiter well because unsuccessful peptide exchange results in disintegration of the original UV-sensitive HLA complex upon UV illumination. In the latter case B2M was removed during the washing step. After removal of non-bound HRP conjugate by washing, a substrate solution was added to the wells. A coloured product formed in proportion to the amount of intact HLA complex present in the samples. After the reaction was terminated by the addition of a stop solution, absorbance was measured in a microtiter plate reader. The absorbance was normalized to the absorbance of an exchange control peptide (represents 100%). Suboptimal HLA binding of peptides with a moderate to low affinity for HLA class I molecules can also be detected by this ELISA technique (Rodenko, B et al. (2006) Nature Protocols 1: 1120-32).
Peptides that had 10% or greater exchange efficiency in one of the 6 HLA alleles were considered for further immunogenicity testing and analysis.
Binding of select neoepitopes to HLA-A*01:01, HLA-A*02:01, HLA-A*03:01, HLAA*24:02, HLAAB*07:02 and HLA-B*08:01 was evaluated using the assay described in Example 1. […] As a criterion for further evaluation, peptides with an exchange rate of at least 10% with the corresponding Pos peptide for at least one of the 6 HLA alleles that we considered for further evaluation. The exchange rates with the allele specific Pos peptides, of the 24 neoantigens so identified are summarized below in Table 17. Higher percentages correspond to stronger binding to the HLA allele. […]

[1] = test system: CD8+ T cells in PBMCs from human patients with metastatic castrate-resistant prostate cancer; assay: Patient PBMC restimulation assay (in vitro immunogenicity, TNFα/IFNγ intracellular flow cytometry); assay type: cell-based; conditions: 9-mer peptide; for Maximum fold change over negative control: TNFα+IFNγ+CD8+ T cells, highest across PBMC donors evaluated; for Maximum frequency of TNFα^+IFNγ^+CD8^+ T cells (Percent): greatest frequency among all tested PBMC donors; for Immunogenic: patient PBMC restimulation
Method: PBMCs from human patients with metastatic castrate-resistant prostate cancer were thawed using media (RPMI 1640 supplemented with Glutamax, 10% HI FBS, and 1× Sodium Pyruvate). Cells were counted and plated in a 96 well round bottom microplate at a concentration of 250,000 viable cells per well. Lyophilized peptides were solubilized in 100% DMSO and diluted in media to 10 μg/mL. Neoantigen peptides were added in equal volume to PBMCs for a final concentration of 5 μg/mL. CEF Peptide Pool “Plus” (Cellular Technologies, Ltd.) was utilized as a positive control and DMSO at the same final concentration as the experimental peptides was utilized as a negative control. Human IL-15 (Peprotech) was added to all wells at final concentration of 10 ng/mL.
Plates were incubated at 37° C. (5% CO2) for a total of 13 days. Media was refreshed every 2 days with IL-15 (10 ng/mL final concentration) and IL-2 (R&D systems, 10 IU/mL final concentration). On day 12, PBMCs were re-stimulated with identical experimental peptides or controls, at same concentration as peptide stimulation on Day 1. After 1-hour incubation, protein Inhibitor Cocktail (eBioscience) was added to every well and plate was incubated overnight.
On day 13, cells were stained for intracellular flow cytometry analysis. The cells were washed with PBS and stained with Live/Dead Fixable Aqua Dead Cell stain (Thermo-Fisher). Following the live/dead stain, cells were blocked using Biotin-Free Fc Receptor Blocker (Accurate Chemical & Scientific Corp). Extracellular cellular flow panel ([…] per well in 50 μL) consisted of CD3 PerCP-Cy5.5 (Biolegend), CD4 BV421 (Biolegend), and CD8 APC-Cy7 (Biolegend). After extracellular staining, cells were fixed using Foxp3/fTranscription Factor Staining Buffer Set (eBioscience) and stained for intracellular proteins (1:50 dilution) using TNFα FITC (R&D Systems) and IFNγ BV785 (Biolegend). Cells were washed and resuspended in stain buffer and analyzed using a BD Celesta flow cytometer.
Flow cytometry cell staining analysis was completed using FlowJo v10. Cells were gated on live, singlet, CD3+ cells. The CD8+ T cells were analyzed for TNFα/IFNγ expression and the frequency of double positive TNFα/IFNγ CD8+ T cells was recorded. Responses were assessed to be positive when the frequency of double positive TNFα/IFNγ CD8+ T cells due to stimulation with an experimental peptide was increased greater than or equal to 2-fold over the DMSO only negative control for that patient. Peptides were analyzed in 1 to 7 patient samples.
The 9 mer fragments shown in Table 13 were assessed for their ability to activate T cells using the Patient PBMC restimulation assay described in Example 1 using TNFα and IFNγ production by CD8^+ T cells as a readout. Self-antigens shown in Table 15 were also used in the assays. […] PBMCs from ten patients were evaluated.

| Molecule | Exchange rate with allele specific Pos peptide, HLA-A*24:02 (HLA-A*24:02) | Maximum fold change over negative control [1] | Maximum frequency of TNFα^+IFNγ^+CD8^+ T cells (Percent) [1] | Immunogenic [1] |
| --- | --- | --- | --- | --- |
| P46 (DDRNTFDIVWWCPMSRLRLALTVPPSTTTTCVTVPAWAA; listed as Homo sapiens) [Peptide P46] | −0.4% | 2.33 | 0.140% | Yes |
| P58 (MMAEIISVHVPKILSGK; listed as Homo sapiens) [Peptide P58] | 0.2% |  | 5.370% | Yes |
| P56 (PKSEVRAKCKFSILNAK; listed as Homo sapiens) [Peptide P56] | 0.5% | 11.57 | 1.620% | Yes |
| YEAGMTLGGKILFFLFLLLPLSPFSLIF (listed as Homo sapiens) [Neoantigen P87] | 0.2% | 3.24 | 0.120% | Yes |
| P73 (DSSGNLLERNSFEVRV; listed as Homo sapiens) [Peptide P73] | 0.5% | 2.97 | 0.110% | Yes |
| P60 (CYLRRQKRLKCEKQPGA; listed as Homo sapiens) [Peptide P60] | 0.9% | 2.08 | 0.340% | Yes |
| SLYHREKQLIAMDSAI (listed as Homo sapiens) [Neoantigen P22] | 0% |  | 0.120% | Yes |
| P98: neoantigen 9 mer fragment used for PBMC stimulation (FIG. 5D) (IVWWCPMSR; listed as Homo sapiens) [Neoantigen P98] | −0.1% | 14.93 | 1.000% | Yes |
| YEAGMTLGEKFRVGNCKHLKMTRP (listed as Homo sapiens) [Neoantigen P82] | −0.1% | 3.46 | 0.970% | Yes |
| P61 (MFENGCYLGRQKRFKCE; listed as Homo sapiens) [Peptide P61] | 90.3% |  | 0.084% | Yes |
| P97 (GYLRMQGLMAQRLLLR; listed as Homo sapiens) [Peptide P97] | 0.1% | 4.55 | 0.160% | Yes |
| B1 | 0.1% | 5.00 | 0.480% | Yes |
